Measured values from patent US20050032904A1, “Composition and use of allylamine derivatives” (priority 2003, published 2005).

Tests used:
[1] = system: human gingival fibroblasts; experiment: Determination of cell growth curve (cell counting); assay type: cell-based; conditions: 5 days
Experimental: The effect of TB on the growth of various human cancer cells wasexamined. In FIG. 1, (A) COLO205, (B) HT29, (C) HepG2, (D) Hep3B, (E) HL60, and (F) normal human fibroblast cells were treated with various concentrations of TB (30 to 120 μM). Media with or without TB were renewed daily until cell counting. Three samples were analyzed in each group. Values represent mean±S.E. The cells were cultured for 5 days with or without TB (30-120 μM), and then the cells were harvested and counted. […] However, when TB concentration was increased to 120 μM, a 50% growth inhibition was observed.
Human colon cancer, hepatoma, leukemia, and human normal fibroblast cells at a density of 1×10^4 were plated in 35-mm Petri dishes. TB was added at the indicated doses in 0.05% dimethyl-sulfoxide (DMSO). For control specimens, the same volume of the 0.05% DMSO without TB was added. Media with and without TB were changed daily until cell counting

[2] = system: COLO 205 tumor xenografts; experiment: Treatment of COLO 205-derived xenografts in vivo; design: species or system nude mouse
Experimental: Genomic DNAs extracted from TB-treated COLO 205 were examined by gel electrophoresis. […] DNA fragmentation was examined at 24 h after drug treatment. In the lanes 2 and 8, cells received mock treatment as controls. […] Comparisons were subjected to ANOVA followed by Fisher's least significant difference test. […] Since, retardation of the cell cycle and/or activation of the cellular apoptotic response are two major mechanisms preventing tumor growth, we examined the TB effect on the cell cycle and apoptosis occurrence of the solid tumor derived from the implanted COLO 205. The COLO-205 cells (5×10^6) in 0.1 ml RPMI 1640 were injected subcutaneously between the scapulae of each nude mouse (purchased from National Science Council animal center, Taipei). […]

[3] = system: COLO 205; experiment: Determination of cell growth curve (cell counting); assay type: cell-based, human
Experimental: The effect of TB on the growth of various human cancer cells […]. In FIG. 1, (A) COLO205, (B) HT29, (C) HepG2, (D) Hep3B, (E) HL60, and (F) normal human fibroblast cells were treated with various concentrations of TB (30 to 120 μM). Media with or without TB were renewed daily until cell counting. Three samples were analyzed in each group. Values represent mean±S.E. The cells were cultured for 5 days with or without TB (30-120 μM), and then the cells were harvested and counted. […] The COLO 205 cells were released from quiescence by incubation in culture media supplemented with 10% FCS and 0.05% DMSO without or with 90 μM TB for 24 h. After 24 h treatment with TB, the cells were washed twice with PBS, replaced with fresh 10% FCS without DMSO or TB. […] The cultured cell numbers in DMSO- and TB-treated group were counted every day. Three samples were analyzed in each group, and values represent the mean±S.E. Human colon cancer, hepatoma, leukemia, and human normal fibroblast cells at a density of 1×10^4 were plated in 35-mm Petri dishes. TB was added at the indicated doses in 0.05% dimethyl-sulfoxide (DMSO). For control specimens, the same volume of the 0.05% DMSO without TB was added. Media with and without TB were changed daily until cell counting

[4] = system: HT 29 cells; experiment: Flow cytometry (FACS) cell cycle analysis; assay type: cell-based, human
[5] = cited from earlier work
[6] = system: cdk4 kinase activity in HT 29 cells; experiment: Immunoprecipitation and kinase activity assay; assay type: cell-based, human; conditions: 60 μM TB, 15 h; p53 His273 mutant
Experimental: (§1) (Ko U, and […]. Genes & Development 1996; 10(9): 1054-72; Levine AJ., Cell 1997;88(3):323-31.). […] To further test this hypothesis, we examined the TB effects on the levels of p21/Cip1, p27/Kip1 and p53 protein, and the cdk4 kinase activity in three human cancer cell lines (COLO 205, HT 29 and Hep 3B). […] Antisense or sense p53 was added to COLO 205 at a final concentration of 20 μM at 16 h before the cell was challenged with 10% FCS and 60 μM TB treatment for additional 15 h. […] As previously described (Wu X, et. al., Oncogene 1996;12(7):1397-403.), the TB-treated cells were lysed in Rb lysis buffer, and immunoprecipitated with anti-cdk4 antibody (2 μg). The protein complexes in beads were washed twice with Rb lysis buffer and then once with Rb kinase assay buffer. The level of phosphorylated of Rb (for pRb), histone Hi (for cdk2) and glutathione s-transferase-Rb fusion protein (for cdk4) were measured by incubating the beads with 40 μl of hot Rb kinase solution [0.25 μl (2 μg) of Rb-GST fusion protein, 0.5 μl of (γ-^32P) ATP, 0.5 μl of 0.1 mM ATP and 38.75 μl of Rb kinase buffer] at 37° C. for 30 min, and then stopped by boiling the samples in SDS sample buffer for 5 min. The samples were analyzed by 12% SDS-PAGE, and the gel was then dried and subjected to autoradiography.

[7] = system: cdk4 kinase activity in Hep 3B cells; experiment: Immunoprecipitation and kinase activity assay; assay type: cell-based, human; conditions: 60 μM TB, 15 h; p53 partial deletion
Experimental: as §1

[8] = system: cdk4 kinase activity in COLO 205 cells; experiment: Immunoprecipitation and kinase activity assay; assay type: cell-based, human; conditions: 60 μM TB, 15 h after release from quiescence; p53 wild type
Experimental: as §1

[9] = daily oral 250 mg TB for 4 weeks, human study

CN(C/C=C/C#CC(C)(C)C)Cc1cccc2ccccc12 [TB, 1-Naphthalenemethanamine, N-(6,6-dimethyl-2-hepten-4-ynyl)-N-methyl-, (E)-]
inhibition at 120 µM ([1]; Homo sapiens, Fibroblast, 120 h, TB 120 μM, medium changed daily, read-out: growth inhibition (reduction of cell count)): 50% | growth rate ([1]; TB 30-60 μM): did not inhibit the growth rate | cytotoxicity for the vital organs ([2]; 50 mg/Kg body weight): not cytotoxic for the vital organs | tumor volume vs. vehicle (DMSO plus peanut oil) ([2]; TB 50 mg/kg, ND 5 mg/kg, intraperitoneal, 3 times per week for 6 weeks): reduction in tumor volume | tumor size of the COLO 205 tumor mass ([2]; intraperitoneal TB 50 mg/kg): substantial decline in tumor size | duration of inhibition of cell proliferation after removal of TB ([3]; 90 μM TB for 24 h, then removed): at least 7 days | reversibility of TB-induced inhibition of cell proliferation ([3]; 90 μM TB for 24 h, then washed and replaced with fresh 10% FCS): not reversed by removal of TB | cell number ([3]; TB 30-120 μM, 5 days, media renewed daily, dose-dependent): decreased cell number | cell growth at TB 60 μM ([3]; TB concentration increased to 60 μM, 5 days): cell growth arrest or cell death | accumulation of cells at the G0/G1 phase ([4]; 90 μM TB after release from quiescence): > 90% | G0/G1 arrest, dose effect ([4]; various concentrations of TB, 15 h after release from quiescence, dose-dependent): induced G0/G1 arrest | fraction of TB absorbed ([5]; after an oral dose (250 mg)): approximately 70% | maximum plasma concentrations ([5]; after an oral dose (250 mg)): 0.5 to 1.5 µg/mL | time to reach maximum plasma concentrations ([5]; after an oral dose (250 mg)): ≤ 2 h | plasma level of TB [5, 9]: 1700 ± 770 ng/mL | plasma level of TB (molar) [5, 9]: 5.83 µM | assayable cdk4 kinase activity [6]: slight decrease | assayable cdk4 kinase activity [7]: slight decrease | assayable cdk4 kinase activity [8]: strong decrease
